Data reported in US20160137639A1, “TRIAZOLE-ISOXAZOLE COMPOUND AND MEDICAL USE THEREOF” (JAPAN TOBACCO INC., priority 2012, published 2016).

Legend:
mouse RORγ = target: T1, mouse RORγ (Mus musculus, UniProt P51450); assay: Luciferase reporter gene assay of inhibitory effect against RORγ transcriptional activity (GAL4-mRORγ plasmid in CHO cells); format: cell-based; conditions: read-out: LUC EC50 (μM) mRORg
T1 construct: mouse, NM_011281.2 and from Ile251 to Lys516; expressed in transfected cells; host or cells: CHO cells (transient co-transfection with pG5-Luc reporter)
T1 sequence (P51450 251-516): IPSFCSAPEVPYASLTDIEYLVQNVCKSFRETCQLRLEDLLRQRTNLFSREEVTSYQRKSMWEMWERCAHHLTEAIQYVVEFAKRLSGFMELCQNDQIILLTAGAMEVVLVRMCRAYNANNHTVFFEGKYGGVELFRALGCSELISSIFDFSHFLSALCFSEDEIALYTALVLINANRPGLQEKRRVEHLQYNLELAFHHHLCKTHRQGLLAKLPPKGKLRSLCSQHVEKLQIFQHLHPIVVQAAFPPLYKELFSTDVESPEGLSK
Method: (§1) In vitro assay of inhibitory effect against RORγ transcriptional activity
(§2) Inhibitory effect of test article on transcriptional activity of RORγ was measured by means of the following luciferase reporter gene assay.
(§3) A cDNA encoding human and mouse RORγ ligand binding domain (LBD) were obtained based on the reported sequences (Genebank accession number and sequence: human, NM_005060.3 and from Ser253 to Lys518; mouse, NM_011281.2 and from Ile251 to Lys516).
(§4) The cDNA of human RORγ or mouse RORγ was inserted into pFA-CMV vector (Strategene), which expresses GAL4-DNA binding domain fusion protein.
(§5) The resulting plasmids are hereinafter referred to as GAL4-hRORγ plasmid and GAL4-mRORγ plasmid, respectively.
(§6) Human or mouse GAL4-RORγ plasmid was transiently co-transfected into Chinese hamster ovary cells (CHO cells) with […] plasmid, a reporter plasmid expressing firefly luciferase depending on GAL4.
(§7) TransIT CHO transfection reagent (Mirus) was used to co-transfect human or mouse GAL4-RORγ plasmid into CHO cells with pG5-Luc plasmid.
(§8) One day before the assay, CHO cells were suspended in HAM F-12 Nutrient medium containing 10 v/v % fetal bovine serum and seeded at 6×10^6 cells per 175 cm^2 cell culture flask.
(§9) Fifty four micro litters of Transit-CHO reagent was added into a 15 ml tube containing 1.16 ml of HAM F-12 Nutrient medium without fetal bovine serum and incubated at room temperature for 10 min.
(§10) The mixture was incubated at room temperature for 10 min.
(§11) Nine micro litters of CHO Mojo Reagent was then added into each tube and mixed gently. The mixture was incubated at room temperature for 10 min.
(§12) The resultant transfection reagent was applied to the cell culture.
(§13) After incubation at 37° C., 5% CO2 for 4 hr, the transfected CHO cells were harvested by a trypsin treatment.
(§14) The collected cells were resuspended in HAM F-12 Nutrient medium supplemented with 10 v/v % fetal bovine serum and plated into a 384-well-white plate at 8,000 cells/50 uL/well.
(§15) The plate was incubated at room temperature for 1 hour and then further incubated at 37° C., 5% CO2 for 3 hours.
(§16) The test articles were dissolved in dimethylsulfoxide (DMSO) to obtain a concentration of 10 mmol/L. The resulting solution was diluted with the medium just before use and added to the cells in the plate to prepare 8 different concentrations of the test article.
(§17) The final concentration of DMSO was 0.1 v/v % After the addition of the test articles, the cells were incubated at 37° C., 5% CO2 for 2 days.
(§18) RORγ transcriptional activity was detected as the intracellular luciferase activity using SteadyLite HTS Reporter Gene Assay System (Perkin Elmer).
(§19) StedyLite Reagent was diluted five-fold into a solution containing 10 mM Tricine, 0.2% w/v BSA, 0.02% v/v Tween-20 to obtain the luciferase substrate solution.
(§20) After the measurement of the cell viability using Resazurin, the culture media in the 384 well-plate were removed. Then the Luc substrate solution was added into each well.
(§21) After the incubation at room temperature for 10 minutes, luminescence of each well was measured by a microplate reader.
(§22) The luciferase activity derived from the luminescence count in the vehicle-control well treated with 0.1% DMSO alone was defined as 100%, and the luciferase activity in the test article was calculated as a percentage (%-of-control) based on the value of the vehicle-control.
(§23) EC50 value of test article was calculated by curve fitting with GraphPad Prism.
(§24) The luminescence counts at the concentration of the test article where the cytotoxicity was observed were excluded from the data analysis.

human RORγ = target: T2, human RORγ (Homo sapiens, UniProt P51449); assay: Luciferase reporter gene assay of inhibitory effect against RORγ transcriptional activity (GAL4-hRORγ plasmid in CHO cells); format: cell-based; conditions: read-out: LUC EC50 (μM) hRORg
T2 construct: human, NM_005060.3 and from Ser253 to Lys518; expressed in transfected cells; host or cells: CHO cells (transient co-transfection with pG5-Luc reporter)
T2 sequence (P51449 253-518): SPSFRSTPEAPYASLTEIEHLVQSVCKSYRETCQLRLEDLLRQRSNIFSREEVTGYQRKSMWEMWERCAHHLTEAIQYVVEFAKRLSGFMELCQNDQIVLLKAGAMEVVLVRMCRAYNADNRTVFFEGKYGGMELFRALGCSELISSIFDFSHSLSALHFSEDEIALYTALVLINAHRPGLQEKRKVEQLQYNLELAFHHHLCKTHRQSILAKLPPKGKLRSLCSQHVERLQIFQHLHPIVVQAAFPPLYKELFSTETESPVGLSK
Method: as §1, §2, §3, §4, §5, §6, §7, §8, §9
A total 36 uL plasmid solution containing the GAL4-hRORγ plasmid (400 ng), pG5-Luc plasmid (9000 ng) and pcDNA3 plasmid (8600 ng) were added into the tube and mixed gently.
as §10, §11, §12, §13, §14, §15, §16, §17, §18, §19, §20, §21, §22, §23, §24

SMILES | EC50 (mouse RORγ) | EC50 (human RORγ)
COc1cc(C)ccc1CNC(=O)CC(CCO)c1nnc(CCC(C)C)n1C1CC1 (racemic) [Example F-176] | > 3 µM | > 3 µM
Cc1c(Cl)cccc1NC(=O)CCc1nnc(C(O)CC(C)C)n1C1CC1 (racemic) [Example F-182] | < 3 µM | > 3 µM
Cc1c(Cl)cccc1NC(=O)CCc1nnc(CCC2CCCN(C(=O)OC(C)(C)C)C2)n1C1CC1 (racemic) [Example F-186] | < 3 µM | < 3 µM
Cc1c(Cl)cccc1NC(=O)CCc1nnc(CCC2CCCNC2)n1C1CC1 (racemic) [Example F-189] | > 3 µM | > 3 µM
CC(=O)N1CCCC(CCc2nnc(CCC(=O)Nc3cccc(Cl)c3C)n2C2CC2)C1 (racemic) [Example F-190] | > 3 µM | > 3 µM
CC(=O)N1C[C@H](C(=O)Nc2ccc(C)cc2C)[C@@H](c2nnc(CCC3CCCCC3)n2C2CC2)C1 (racemic) [Example F-191] | < 3 µM | < 3 µM
C=CCC(CC(=O)Nc1cccc(Cl)c1C)c1nnc(CCC(C)C)n1C1CC1 (racemic) [Example F-193] | < 3 µM | < 3 µM
CCCC(CC(=O)Nc1cccc(Cl)c1C)c1nnc(CCC(C)C)n1C1CC1 (racemic) [Example F-194] | < 3 µM | < 3 µM
Cc1c(Cl)cccc1NC(=O)CC(CCCOCc1ccccc1)c1nnc(CCC(C)C)n1C1CC1 (racemic) [Example F-195] | < 3 µM | < 3 µM
Cc1c(Cl)cccc1NC(=O)CC(CCCO)c1nnc(CCC(C)C)n1C1CC1 (racemic) [Example F-196] | < 3 µM | < 3 µM
C=CCC(CC(=O)Nc1cccc(Cl)c1C)c1nnc(CCCC(C)C)n1C1CC1 (racemic) [Example F-197] | < 3 µM | < 3 µM
C=CCC(CC(=O)Nc1ccc(C)cc1C)c1nnc(CCCC(C)C)n1C1CC1 (racemic) [Example F-198] | < 3 µM | < 3 µM
Cc1c(Cl)cccc1NC(=O)CC(CCO)c1nnc(CCCC(C)C)n1C1CC1 (racemic) [Example F-199] | < 3 µM | < 3 µM
C=CCC(CC(=O)NCc1ccc(C)cc1OC)c1nnc(CCCC(C)C)n1C1CC1 (racemic) [Example F-200] | < 3 µM | < 3 µM
Cc1ccc(NC(=O)CC(CCO)c2nnc(CCCC(C)C)n2C2CC2)c(C)c1 (racemic) [Example F-201] | < 3 µM | < 3 µM
COc1cc(C)ccc1CNC(=O)CC(CCO)c1nnc(CCCC(C)C)n1C1CC1 (racemic) [Example F-202] | < 3 µM | < 3 µM
Cc1c(Cl)cccc1NC(=O)CCc1nnc(CCC2CCCN(C)C2)n1C1CC1 (racemic) [Example F-203] | > 3 µM | > 3 µM
Cc1ccc(NC(=O)CCc2nnc(CCC3CCCCC3)n2C2CC2(F)F)c(C)c1 (racemic) [Example F-211] | < 3 µM | < 3 µM
Cc1c(Cl)cccc1NC(=O)CC(CCCO)c1nnc(CCCC(C)C)n1C1CC1 (racemic) [Example F-212] | < 3 µM | < 3 µM
Cc1c(Cl)cccc1NC(=O)CC(CC(=O)O)c1nnc(CCCC(C)C)n1C1CC1 (racemic) [Example F-213] | > 3 µM | > 3 µM

SMILES | EC50 (mouse RORγ) | EC50 (human RORγ)
Cc1ccc(NC(=O)CC(CCCO)c2nnc(CCCC(C)C)n2C2CC2)c(C)c1 (racemic) [Example F-214] | < 3 µM | < 3 µM
CC(=O)N1C[C@H](C(=O)Nc2ccc(C)cc2C)[C@@H](c2nnc(CCCC(C)(C)C)n2C2CC2)C1 (racemic) [Example F-219] | < 3 µM | < 3 µM
CC(=O)N1C[C@H](C(=O)Nc2ccc(C)cc2C)[C@@H](c2nnc(CCCC(C)C)n2C2CC2)C1 (racemic) [Example F-220] | < 3 µM | < 3 µM
CC(=O)N1C[C@H](C(=O)Nc2ccc(C)cc2C)[C@@H](c2nnc(CCOC(C)(C)C)n2C2CC2)C1 (racemic) [Example F-222] | < 3 µM | > 3 µM
CC(=O)N1C[C@H](C(=O)Nc2ccc(C)cc2C)[C@@H](c2nnc(CCC(C)(C)C)n2C2CC2)C1 (racemic) [Example F-223] | < 3 µM | < 3 µM
Cc1c(Cl)cccc1NC(=O)CC(CCN1C(=O)c2ccccc2C1=O)c1nnc(CCCC(C)C)n1C1CC1 (racemic) [Example F-224] | < 3 µM | < 3 µM
Cc1c(Cl)cccc1NC(=O)CC(CCN)c1nnc(CCCC(C)C)n1C1CC1 (racemic) [Example F-225] | > 3 µM | > 3 µM
CCC(C)CCc1nnc(CCC(=O)Nc2cccc(Cl)c2C)n1C1CC1 (racemic) [Example F-235] | < 3 µM | < 3 µM
CCC(C)CCc1nnc(CCC(=O)Nc2ccc(C)cc2C)n1C1CC1 (racemic) [Example F-236] | < 3 µM | > 3 µM
C=CCC(CC(=O)Nc1cccc(Cl)c1C)c1nnc(CCC2CCCCC2)n1C1CC1 (racemic) [Example F-244] | < 3 µM | < 3 µM
C=CCC(CC(=O)NCc1ccc(C)cc1OC)c1nnc(CCC2CCCCC2)n1C1CC1 (racemic) [Example F-246] | < 3 µM | < 3 µM
Cc1c(Cl)cccc1NC(=O)CC(CCO)c1nnc(CCC2CCCCC2)n1C1CC1 (racemic) [Example F-247] | < 3 µM | < 3 µM
Cc1ccc(NC(=O)CC(CCO)c2nnc(CCC3CCCCC3)n2C2CC2)c(C)c1 (racemic) [Example F-248] | < 3 µM | < 3 µM
COc1cc(C)ccc1CNC(=O)CC(CCO)c1nnc(CCC2CCCCC2)n1C1CC1 (racemic) [Example F-249] | < 3 µM | < 3 µM
Cc1ccc(NC(=O)CC(CC(=O)O)c2nnc(CCCC(C)C)n2C2CC2)c(C)c1 (racemic) [Example F-252] | > 3 µM | > 3 µM
Cc1ccc(NC(=O)CC(CC(N)=O)c2nnc(CCCC(C)C)n2C2CC2)c(C)c1 (racemic) [Example F-253] | > 3 µM | > 3 µM
CNC(=O)CC(CC(=O)Nc1ccc(C)cc1C)c1nnc(CCCC(C)C)n1C1CC1 (racemic) [Example F-265] | < 3 µM | > 3 µM
Cc1ccc(NC(=O)CC(CC(=O)N(C)C)c2nnc(CCCC(C)C)n2C2CC2)c(C)c1 (racemic) [Example F-266] | < 3 µM | < 3 µM
Cc1ccc(NC(=O)CC(CO)c2nnc(CCCC(C)C)n2C2CC2)c(C)c1 (racemic) [Example F-271] | < 3 µM | < 3 µM
